The text below walks through data of ChEMBL document CHEMBL1134149, “Discovery, total synthesis, HRV 3C-protease inhibitory activity, and structure-activity relationships of 2-methoxystypandrone and its analogues” (Bioorg Med Chem Lett, 2001).

One assay concerns the target T1, Papain (Carica papaya) (UniProt P00784).
T1 sequence (whole entry): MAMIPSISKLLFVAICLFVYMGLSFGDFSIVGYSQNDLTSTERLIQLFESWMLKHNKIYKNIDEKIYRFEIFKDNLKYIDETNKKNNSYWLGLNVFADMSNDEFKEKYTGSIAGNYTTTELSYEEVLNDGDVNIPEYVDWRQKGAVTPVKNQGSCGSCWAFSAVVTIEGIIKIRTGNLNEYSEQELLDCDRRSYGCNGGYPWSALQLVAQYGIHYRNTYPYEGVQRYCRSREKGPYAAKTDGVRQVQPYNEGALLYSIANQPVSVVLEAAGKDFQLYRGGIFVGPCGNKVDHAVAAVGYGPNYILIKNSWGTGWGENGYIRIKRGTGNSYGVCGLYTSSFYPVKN
The assay can be described thus: Percent inhibition against papain. Particulars: concentration not given here.
In general, inhibition refers to the drop in the measured response relative to a control, in per cent. A low value points to a weak effect. Compound `O=C1C=CC(=O)c2c1ccc1c2ccc2ccccc21` returned an inhibition of 45%.
Compound `O=C1C=Cc2ccccc2C1=O` [1,2-NAPHTHOQUINONE] showed an inhibition of 67%.
Compound `O=C1C(=O)c2ccccc2-c2ccccc21` [9,10-PHENANTHRENEQUINONE] came in with an inhibition of 24%.

The target of the next assay is T2, Papain (Carica papaya, UniProt P00784).
T2 sequence (P00784 whole entry): T1 sequence (whole entry)
Description: Inhibitory activity against papain using HPLC assay.
Settings: not given
The IC50 is the point on the concentration scale where inhibition reaches its midpoint. Read a low IC50 as higher potency. For `O=C1C=CC(=O)c2c1ccc1c2ccc2ccccc21`, the IC50 was 18 µM.
Take `COC1=CC(=O)c2c(cc(C)c(C(C)=O)c2O)C1=O`: 23 µM corresponded to half-maximal inhibition (IC50). This IC50 and that of the compound before are within 1.5-fold of each other.
With `COC1=CC(=O)c2c(cc(C)c(C(C)=O)c2OC(C)=O)C1=O`, the IC50 was 33 µM.
`O=C1C=CC(=O)c2ccccc21` [NAPHTHOQUINONE]: inhibition was half-maximal at 29 µM (IC50). The IC50 values of the last two compounds are within 1.5-fold of each other.
`O=C1C=Cc2ccccc2C1=O` [1,2-NAPHTHOQUINONE]: half-maximal inhibition (IC50) was put at 120 µM.
`O=C1C(=O)c2ccccc2-c2ccccc21` [9,10-PHENANTHRENEQUINONE]: the half-maximal inhibitory concentration (IC50) was found to be 91 µM. The IC50 values of the last two compounds are within 1.5-fold of each other.
